Laboratory results taken from PMC5637554 (MedChemComm, 2017).

Biological target: MDM2 (Homo sapiens, UniProt Q00987)
Test: Fluorescence polarization
Assay type: binding
Conditions: FP; 4-chloro-phenyl anchor instead of 6-chloro-indole

Chain of MDM2 (Q00987 whole entry): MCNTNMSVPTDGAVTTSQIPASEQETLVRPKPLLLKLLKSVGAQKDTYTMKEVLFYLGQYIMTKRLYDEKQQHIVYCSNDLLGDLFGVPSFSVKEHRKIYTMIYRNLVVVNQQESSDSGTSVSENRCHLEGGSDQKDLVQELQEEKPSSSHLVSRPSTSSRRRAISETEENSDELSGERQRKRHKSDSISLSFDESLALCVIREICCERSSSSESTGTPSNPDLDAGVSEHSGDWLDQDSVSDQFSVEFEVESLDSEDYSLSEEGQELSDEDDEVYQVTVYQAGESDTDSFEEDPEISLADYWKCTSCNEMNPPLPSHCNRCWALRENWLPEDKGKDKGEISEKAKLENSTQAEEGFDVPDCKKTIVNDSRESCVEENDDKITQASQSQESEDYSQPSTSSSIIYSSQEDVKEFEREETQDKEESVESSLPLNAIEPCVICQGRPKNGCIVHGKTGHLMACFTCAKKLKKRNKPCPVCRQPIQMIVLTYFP

activity against MDM2/X: did not show any activity
Compound: CC(C)(C)NC(=O)C(c1ccc(Cl)cc1)N1C(=O)CC1c1ccc(OCc2ccccc2)cc1 (stereo not shown) [Compound 2g]
